Experimental data published in article PMC7413254 (Nature Communications, 2020).
Changes are numbered by the printed parent chain. Read-outs that look alike come from different tables or passages of the source.

Key:
[1] = biological target: T1, PfCRT^3D7 in C2^GC03 parasites (Plasmodium falciparum, UniProt Q8IBZ9); test: P. falciparum H+-efflux assay (rate of DV alkalinisation after concanamycin A); assay type: cell-based; details: C2GC03; test solute 10 μM
T1 construct: PfCRT also functions as a peptide transporter within its native environment of the DV membrane; expressed in transfected cells; host or cells: P. falciparum pfcrt transfectant line C2^GC03 (saponin-isolated trophozoites)
T1 sequence (Q8IBZ9 1-424): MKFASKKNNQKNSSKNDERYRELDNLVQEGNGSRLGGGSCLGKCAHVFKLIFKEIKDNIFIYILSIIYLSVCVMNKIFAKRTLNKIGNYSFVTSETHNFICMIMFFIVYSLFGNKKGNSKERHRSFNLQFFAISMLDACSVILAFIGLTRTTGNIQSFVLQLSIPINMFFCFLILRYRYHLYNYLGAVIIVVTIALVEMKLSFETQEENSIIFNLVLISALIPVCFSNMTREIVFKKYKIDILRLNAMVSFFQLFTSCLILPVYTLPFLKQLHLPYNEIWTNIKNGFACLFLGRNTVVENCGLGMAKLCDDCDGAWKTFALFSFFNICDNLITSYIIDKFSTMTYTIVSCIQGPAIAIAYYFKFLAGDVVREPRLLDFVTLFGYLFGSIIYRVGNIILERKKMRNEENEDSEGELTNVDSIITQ

[2] = biological target: T2, PfCRT^7G8 in C6^7G8 parasites (Plasmodium falciparum, UniProt Q8IBZ9, A220S/C72S/I351M/I356L/K76T/N326D); test: as above; assay type: cell-based; details: C67G8; test solute 10 μM
T2 construct: PfCRT also functions as a peptide transporter within its native environment of the DV membrane; expressed in transfected cells; host or cells: P. falciparum pfcrt transfectant line C6^7G8 (saponin-isolated trophozoites)
T2 sequence (Q8IBZ9 1-424 C72S/K76T/A220S/N326D/I351M/I356L): T1 sequence (Q8IBZ9 1-424) with C72S, K76T, A220S, N326D, I351M, I356L

[3] = biological target: T3, PfCRT^Dd2 in C4^Dd2 parasites (Plasmodium falciparum, UniProt Q8IBZ9, A220S/I356T/K76T/M74I/N326S/N75E/Q271E/R371I); test: as above; assay type: cell-based; details: C4Dd2; test solute 10 μM
T3 construct: PfCRT also functions as a peptide transporter within its native environment of the DV membrane; expressed in transfected cells; host or cells: P. falciparum pfcrt transfectant line C4^Dd2 (saponin-isolated trophozoites)
T3 sequence (Q8IBZ9 1-424 M74I/N75E/K76T/A220S/Q271E/N326S/I356T/R371I): T1 sequence (Q8IBZ9 1-424) with M74I, N75E, K76T, A220S, Q271E, N326S, I356T, R371I

non-expressing oocytes [4] = test: cells; assay type: cell-based, Xenopus laevis; details: Xenopus laevis, Oocyte
How it was run: (§1)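 Radioactivity accumulated per oocyte, read by liquid scintillation after 10% SDS lysis, served as the uptake measure. Incubations ran 1.5 h at 27.5 °C in ND96 at pH 5.5, matching digestive-vacuole acidity.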

PfCRT^3D7 [5] = biological target: T4, PfCRT^3D7 (Plasmodium falciparum, UniProt Q8IBZ9); test: cell-based; assay type: cell-based
How it was run: as §1

PfCRT^Dd2 = PfCRT^Dd2 (Plasmodium falciparum, UniProt Q9N623, A220S/I356T/K76T/M74I/N326S/N75E/Q271E/R371I); test: [3H]CQ uptake into Xenopus oocytes, cis-inhibition by unlabelled solute; assay type: cell-based
PfCRT^Dd2, sequence (Q9N623 whole entry A220S/I356T/K76T/M74I/N326S/N75E/Q271E/R371I): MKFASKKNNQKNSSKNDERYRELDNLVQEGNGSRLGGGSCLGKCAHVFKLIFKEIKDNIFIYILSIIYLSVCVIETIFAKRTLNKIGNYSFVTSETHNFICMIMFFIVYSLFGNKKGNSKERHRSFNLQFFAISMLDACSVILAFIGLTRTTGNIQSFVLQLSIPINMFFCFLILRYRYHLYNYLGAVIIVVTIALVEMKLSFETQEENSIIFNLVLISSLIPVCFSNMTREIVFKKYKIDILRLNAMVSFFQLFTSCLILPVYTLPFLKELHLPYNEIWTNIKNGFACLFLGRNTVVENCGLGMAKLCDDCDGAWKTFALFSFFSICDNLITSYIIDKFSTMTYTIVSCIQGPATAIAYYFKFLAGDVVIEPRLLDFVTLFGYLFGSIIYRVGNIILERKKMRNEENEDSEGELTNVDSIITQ
How it was run: as §1

PfCRT^Ecu1110 = PfCRT^Ecu1110 (Plasmodium falciparum, UniProt Q9N623, A220S/I356L/K76T/N326D); test: as above; assay type: cell-based
PfCRT^Ecu1110, sequence (Q9N623 whole entry A220S/I356L/K76T/N326D): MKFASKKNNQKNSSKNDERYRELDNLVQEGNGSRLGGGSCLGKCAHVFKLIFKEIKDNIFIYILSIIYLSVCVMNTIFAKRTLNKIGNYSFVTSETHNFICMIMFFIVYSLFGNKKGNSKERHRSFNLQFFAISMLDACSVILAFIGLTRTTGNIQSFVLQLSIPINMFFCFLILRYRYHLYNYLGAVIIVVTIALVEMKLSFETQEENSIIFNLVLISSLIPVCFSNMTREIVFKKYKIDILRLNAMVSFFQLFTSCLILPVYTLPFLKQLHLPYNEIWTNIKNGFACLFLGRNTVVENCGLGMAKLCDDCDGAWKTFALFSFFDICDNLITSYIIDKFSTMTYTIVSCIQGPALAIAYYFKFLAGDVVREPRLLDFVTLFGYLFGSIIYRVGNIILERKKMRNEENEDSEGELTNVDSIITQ
How it was run: as §1

non-expressing oocytes [6] = assay type: cell-based, Xenopus laevis; details: SEM
How it was run: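 Oocytes (ten per treatment, ≥4 independent frogs/days) were preloaded by injecting VF-6 in 25 nL ND96 at pH 5.0, 5.5, 6.0 or 7.0, or Na^+-free choline buffer, then uptake run 1.5 h, 27.5 °C, ND96 pH 5.5 by default. Internal concentrations assumed ~400 nL oocyte volume.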

PfCRT^3D7 [7] = biological target: T4, PfCRT^3D7; test: cell-based; assay type: cell-based; details: SEM
How it was run: (§2)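 Transport measured in Xenopus oocytes expressing the transporters, 1.5 h at 27.5 °C in ND96 pH 5.5 unless noted. For trans-stimulation, VF-6 injected in 25 nL ND96 at pH 5.0–7.0 or Na^+-free (choline) buffer; intracellular levels based on ~400 nL oocyte volume. Ten oocytes per treatment, ≥4 experiments.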

PfNT1 = biological target: T5, PfNT1 (Plasmodium falciparum, UniProt Q8IDM6); test: cell-based; assay type: cell-based; details: […], read-out: Uptake of [3H]CQ (% PfCRTDd2 control), trans-stimulation, PfNT1; SEM
T5 construct: expressed in transfected cells; host or cells: Xenopus laevis oocytes (stage V-VI), cRNA-injected
T5 sequence (Q8IDM6 whole entry): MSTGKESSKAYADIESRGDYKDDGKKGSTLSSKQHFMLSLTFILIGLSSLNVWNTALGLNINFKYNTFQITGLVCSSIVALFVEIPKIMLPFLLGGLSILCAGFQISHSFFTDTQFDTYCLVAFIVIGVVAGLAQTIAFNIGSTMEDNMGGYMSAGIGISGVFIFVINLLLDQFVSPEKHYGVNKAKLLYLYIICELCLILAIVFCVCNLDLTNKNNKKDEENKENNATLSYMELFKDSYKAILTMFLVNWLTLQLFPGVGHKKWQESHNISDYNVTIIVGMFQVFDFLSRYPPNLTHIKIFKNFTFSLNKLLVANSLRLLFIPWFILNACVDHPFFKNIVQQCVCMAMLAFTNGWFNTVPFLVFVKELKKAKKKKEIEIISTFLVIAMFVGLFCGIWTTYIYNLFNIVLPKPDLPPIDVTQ
How it was run: as §2

PfCRT [8] = test: Influx of VF-6 via PfCRT into the oocyte, solutes tested as potential co-substrates; assay type: cell-based, Plasmodium falciparum; design: key: X: Compounds that have been tested as potential co-substrates but are not required for influx of VF-6 via PfCRT into the oocyte; details: X marks the solute
PfCRT [9] = test: Test of solutes as potential co-substrates for influx of VF-6 via PfCRT into the oocyte; assay type: cell-based, Plasmodium falciparum; design: key: X: Compounds that have been tested as potential co-substrates but are not required for influx of VF-6 via PfCRT into the oocyte; details: X = tested
PfCRT [10] = test: Potential co-substrates tested for influx of VF-6 via PfCRT into the oocyte; assay type: cell-based, Plasmodium falciparum; design: key: X: Compounds that have been tested as potential co-substrates but are not required for influx of VF-6 via PfCRT into the oocyte
[11] = read-out: Uptake of [3H]CQ (% PfCRTDd2 control), cis-inhibition, non-expressing oocytes, SEM
[12] = read-out: Uptake of [3H]CQ (% non-expressing oocyte control), cis-inhibition
[13] = read-out: Uptake of [3H]CQ (% PfCRTDd2 control), cis-inhibition, PfCRT3D7, SEM
[14] = read-out: PfCRT-mediated [3H]CQ transport, cis-inhibition (% PfCRTDd2 control)
[15] = read-out: PfCRT-mediated [3H]CQ transport, cis-inhibition (% PfCRTEcu1110 control)
[16] = read-out: Uptake of [3H]CQ (% PfCRTDd2 control), cis-inhibition, PfCRTEcu1110, SEM
[17] = read-out: Uptake of [3H]CQ (% PfCRTEcu1110 control), cis-inhibition
[18] = read-out: [3H]CQ transport (% PfCRTEcu1110 control), cis-inhibition, PfCRTEcu1110, SEM

## CC(C)c1nc(CN(C)C(=O)N[C@H](C(=O)N[C@@H](Cc2ccccc2)C[C@H](O)[C@H](Cc2ccccc2)NC(=O)OCc2cncs2)C(C)C)cs1 [ritonavir]
[1]
  Effect on rate of DV alkalinisation / H+ leak (in words): without effect
[2]
  Effect on rate of DV alkalinisation / H+ leak (in words): without effect
[3]
  Effect on rate of DV alkalinisation / H+ leak (in words): without effect

## Cc1cccc(C)c1OCC(=O)N[C@@H](Cc1ccccc1)[C@@H](O)C[C@H](Cc1ccccc1)NC(=O)[C@H](C(C)C)N1CCCNC1=O [lopinavir]
[1]
  Effect on rate of DV alkalinisation / H+ leak (in words): without effect
[2]
  Effect on rate of DV alkalinisation / H+ leak (in words): without effect
[3]
  Effect on rate of DV alkalinisation / H+ leak (in words): without effect

## CC(C)C[C@H](NC(=O)[C@H]1O[C@@H]1C(=O)O)C(=O)NCCCCN=C(N)N [E-64]
[1]
  Effect on rate of DV alkalinisation / H+ leak (in words): caused a H^+ leak
[3]
  Effect on rate of DV alkalinisation / H+ leak (in words): neither peptide exerted an effect

## CC(=O)N[C@@H](CC(C)C)C(=O)N[C@@H](CC(C)C)C(=O)N[C@H](C=O)CCCNC(=N)N [Leupeptin, leupeptin]
[1]
  Effect on rate of DV alkalinisation / H+ leak (in words): caused a H^+ leak
[2]
  Effect on rate of DV alkalinisation / H+ leak (in words): induced a H^+ leak
[3]
  Effect on rate of DV alkalinisation / H+ leak (in words): neither peptide exerted an effect

## O=C(O)[C@@H]1CCCN1 [L-proline]
non-expressing oocytes [4]; [11]
  inhibition at 500 µM: 2.8 ± 0.09%
  inhibition at 1000 µM: 3.1 ± 0.03%
  inhibition at 2000 µM: 3.4 ± 0.07%
non-expressing oocytes [4]; [12]
  inhibition at 500 µM: 99 ± 3.3%
  inhibition at 1000 µM: 100 ± 3.5%
  inhibition at 2000 µM: 97 ± 5.3%
PfCRT^3D7 [5]; read-out: Uptake of [3H]CQ (% PfCRT3D7 control), cis-inhibition
  inhibition at 500 µM: 99 ± 6.2%
PfCRT^3D7 [5]; [13]
  inhibition at 500 µM: 2.3 ± 0.01%
  inhibition at 2000 µM: 2.6 ± 0.04%
PfCRT^Dd2; [14]
  inhibition at 500 µM: 95 ± 4.2%
  inhibition at 1000 µM: 96 ± 3.2%
PfCRT^Dd2; read-out: Uptake of [3H]CQ (% PfCRTDd2 control), cis-inhibition, PfCRTDd2, SEM
  inhibition at 1000 µM: 98 ± 4.8%
PfCRT^Ecu1110; [15]
  inhibition at 500 µM: 98 ± 4.6%
  inhibition at 1000 µM: 94 ± 3.6%
  inhibition at 2000 µM: 95 ± 2.6%
PfCRT^Ecu1110; [16]
  inhibition at 500 µM: 33 ± 1.4%
  inhibition at 1000 µM: 31 ± 1.5%
  inhibition at 2000 µM: 32 ± 1.4%
PfCRT^Ecu1110; [17]
  inhibition at 500 µM: 100 ± 7.7%
  inhibition at 1000 µM: 96 ± 8.1%
  inhibition at 2000 µM: 96 ± 4.3%
PfCRT^Ecu1110; [18]
  inhibition at 500 µM: 30 ± 1.4%
  inhibition at 1000 µM: 28 ± 0.6%
  inhibition at 2000 µM: 29 ± 1.4%
non-expressing oocytes [6]
  Uptake of [3H]CQ (% PfCRTDd2 control), trans-stimulation, non-expressing oocytes: 2.6 ± 0.08 % PfCRTDd2 control
PfCRT^3D7 [7]
  [3H]CQ transport (% PfCRT3D7 control), trans-stimulation, PfCRT3D7: 0.2 ± 0.02 % PfCRT3D7 control
PfNT1
  activity at 5000 µM: 3.1 ± 0.08%
PfCRT [8]
  Compounds that have been tested as potential co-substrates but are not required for influx of VF-6 via PfCRT into the oocyte: X
PfCRT [9]
  Tested as potential co-substrate but not required for influx of VF-6 via PfCRT into the oocyte: X
PfCRT [10]
  Tested as potential co-substrate but not required for influx of VF-6 via PfCRT into the oocyte: X
